ChEMBL document CHEMBL1201862, “PubChem BioAssay data set” (2004)
Activity calls are given as the source filed them.

Assays:
[1] = target: T1, Short transient receptor potential channel 4 (Mus musculus, UniProt Q9QUQ5); experiment: mouse TRPC4 channel activators, dose response, cell-based, HEK293 TRPC4/mu-opioid, Fluo-4 calcium (AID 434937); format: functional
T1 sequence (Q9QUQ5 whole entry): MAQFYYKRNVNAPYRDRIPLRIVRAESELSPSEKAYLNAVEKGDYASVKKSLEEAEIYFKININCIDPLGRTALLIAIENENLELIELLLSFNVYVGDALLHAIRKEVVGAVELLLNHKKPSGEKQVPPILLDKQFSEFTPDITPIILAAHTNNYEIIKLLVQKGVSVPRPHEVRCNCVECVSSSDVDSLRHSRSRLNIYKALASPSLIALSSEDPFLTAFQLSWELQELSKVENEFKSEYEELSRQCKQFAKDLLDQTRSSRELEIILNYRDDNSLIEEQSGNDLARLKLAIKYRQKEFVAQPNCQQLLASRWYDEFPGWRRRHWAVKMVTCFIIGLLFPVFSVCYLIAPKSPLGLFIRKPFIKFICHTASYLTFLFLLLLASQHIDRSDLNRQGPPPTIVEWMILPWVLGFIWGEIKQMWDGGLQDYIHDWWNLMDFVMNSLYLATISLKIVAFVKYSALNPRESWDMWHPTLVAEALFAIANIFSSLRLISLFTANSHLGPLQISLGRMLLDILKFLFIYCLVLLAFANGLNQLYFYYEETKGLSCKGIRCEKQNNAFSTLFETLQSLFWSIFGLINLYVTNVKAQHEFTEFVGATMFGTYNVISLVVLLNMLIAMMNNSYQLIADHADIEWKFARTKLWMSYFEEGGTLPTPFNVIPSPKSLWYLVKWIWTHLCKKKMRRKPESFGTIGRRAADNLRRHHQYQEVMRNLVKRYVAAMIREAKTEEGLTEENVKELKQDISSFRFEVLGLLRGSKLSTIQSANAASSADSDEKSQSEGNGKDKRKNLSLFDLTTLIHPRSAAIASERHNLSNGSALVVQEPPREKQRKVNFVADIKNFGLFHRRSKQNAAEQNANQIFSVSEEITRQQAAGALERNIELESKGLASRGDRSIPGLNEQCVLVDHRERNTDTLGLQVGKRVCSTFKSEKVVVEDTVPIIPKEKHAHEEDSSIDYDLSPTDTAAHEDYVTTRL

[2] = cytotoxicity in HEK-293T cells, dose response, cytotoxicity control for BCR NF-kB inhibitor project, luminescence, B-cell screen hits (AID 489021); format: functional, cell-based;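 note: HEK-293T cells carrying an NF-kB luciferase reporter; cells exposed to compound for about 14 hours before viability readout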
[3] = target: T2, Apoptotic protease-activating factor 1 (Homo sapiens, UniProt O14727); format: functional
T2 sequence (O14727 whole entry): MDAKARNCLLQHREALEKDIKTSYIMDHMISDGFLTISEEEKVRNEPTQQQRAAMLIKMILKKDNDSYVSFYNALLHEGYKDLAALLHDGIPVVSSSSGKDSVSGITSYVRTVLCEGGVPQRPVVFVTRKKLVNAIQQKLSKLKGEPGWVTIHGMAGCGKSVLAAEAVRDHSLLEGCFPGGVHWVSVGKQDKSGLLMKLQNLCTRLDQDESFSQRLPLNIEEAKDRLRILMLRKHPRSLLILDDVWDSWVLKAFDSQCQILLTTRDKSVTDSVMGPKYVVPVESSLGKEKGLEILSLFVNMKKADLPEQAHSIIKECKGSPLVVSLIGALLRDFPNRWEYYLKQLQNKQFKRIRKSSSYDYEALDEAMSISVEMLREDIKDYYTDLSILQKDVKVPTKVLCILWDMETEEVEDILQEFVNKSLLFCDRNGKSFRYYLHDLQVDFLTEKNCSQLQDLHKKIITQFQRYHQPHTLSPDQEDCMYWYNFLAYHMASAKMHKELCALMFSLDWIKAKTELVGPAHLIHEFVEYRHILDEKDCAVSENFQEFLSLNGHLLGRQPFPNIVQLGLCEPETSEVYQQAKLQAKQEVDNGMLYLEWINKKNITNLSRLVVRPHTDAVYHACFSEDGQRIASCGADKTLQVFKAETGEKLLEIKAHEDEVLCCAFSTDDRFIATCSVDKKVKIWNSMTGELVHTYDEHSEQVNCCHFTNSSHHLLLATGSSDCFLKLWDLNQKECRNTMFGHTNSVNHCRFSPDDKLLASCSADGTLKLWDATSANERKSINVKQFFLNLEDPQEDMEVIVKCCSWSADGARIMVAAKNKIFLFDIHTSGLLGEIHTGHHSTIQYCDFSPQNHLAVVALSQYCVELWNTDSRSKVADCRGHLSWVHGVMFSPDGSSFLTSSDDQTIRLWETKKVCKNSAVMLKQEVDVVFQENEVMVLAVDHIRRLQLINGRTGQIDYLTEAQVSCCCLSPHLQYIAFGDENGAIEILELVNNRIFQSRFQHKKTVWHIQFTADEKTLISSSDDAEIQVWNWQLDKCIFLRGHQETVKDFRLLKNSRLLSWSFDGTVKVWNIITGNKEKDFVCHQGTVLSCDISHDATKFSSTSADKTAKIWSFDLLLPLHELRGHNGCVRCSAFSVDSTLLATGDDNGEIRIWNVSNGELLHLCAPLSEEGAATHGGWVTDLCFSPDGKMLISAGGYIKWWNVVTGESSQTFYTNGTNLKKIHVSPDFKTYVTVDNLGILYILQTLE

Vero = experiment: cells; format: functional; settings: Chlorocebus sabaeus
[4] = target: DNA dC->dU-editing enzyme APOBEC-3A (Homo sapiens, UniProt P31941); experiment: Dose Response confirmation of small molecule APOBEC3A DNA Deaminase Inhibitors via a fluorescence-based single-stranded DNA deaminase assay. [Related pubchem assays (depositor defined):AID493011, AID493024]; format: functional
[5] = target: DNA dC->dU-editing enzyme APOBEC-3G (Homo sapiens, UniProt Q9HC16); format: functional;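 note: Dose-response counterscreen measuring inhibition of APOBEC3G DNA deaminase activity, run while confirming APOBEC3A inhibitors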
HEK293 [6] = experiment: NOD1 signaling inhibitors, primary screen, cell-based, luminescence, uHTS (AID 1578); format: functional; settings: Homo sapiens
HEK293 [7] = experiment: cells; format: functional, cell-based; settings: Homo sapiens
HEK293 [8] = experiment: cells; format: functional, cell-based; settings: Homo sapiens; remark: listed apart in the source
[9] = cytotoxicity in HPDE-C7 cells, cell-based, fluorescence, HTS (AID 430); format: functional; settings: Homo sapiens
[10] = target: Nucleotide-binding oligomerization domain-containing protein 2 (Homo sapiens, UniProt Q9HC29); experiment: NOD2 signaling inhibitors, cell-based, luminescence, uHTS, HEK293 (AID 1566); format: functional
HEK293 [11] = experiment: NOD2 signaling inhibitors in MDP-stimulated cells, cell-based, uHTS, luminescence (AID 2001); format: functional; settings: Homo sapiens
HEK293 [12] = experiment: cells; format: functional, cell-based; settings: Homo sapiens; remark: listed apart in the source
[13] = cytotoxicity in KRAS-transformed pancreatic duct cells, primary screen, cell-based, fluorescence, HTS (AID 431); format: functional; settings: Homo sapiens;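 note: cell line used: HPDE-C7K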
SUMO-activating enzyme = SUMO-activating enzyme (Homo sapiens, UniProt Q9UBT2); experiment: SUMOylation inhibitor hit validation, confirmation, SUMOylation inhibitor project, biochemical, AlphaScreen (AID 2018); format: functional
Estrogen receptor = target: T3, Estrogen receptor (Homo sapiens, UniProt P03372);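 note: potency for inhibiting coactivator peptide recruitment to the receptor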
T3 sequence (P03372 whole entry): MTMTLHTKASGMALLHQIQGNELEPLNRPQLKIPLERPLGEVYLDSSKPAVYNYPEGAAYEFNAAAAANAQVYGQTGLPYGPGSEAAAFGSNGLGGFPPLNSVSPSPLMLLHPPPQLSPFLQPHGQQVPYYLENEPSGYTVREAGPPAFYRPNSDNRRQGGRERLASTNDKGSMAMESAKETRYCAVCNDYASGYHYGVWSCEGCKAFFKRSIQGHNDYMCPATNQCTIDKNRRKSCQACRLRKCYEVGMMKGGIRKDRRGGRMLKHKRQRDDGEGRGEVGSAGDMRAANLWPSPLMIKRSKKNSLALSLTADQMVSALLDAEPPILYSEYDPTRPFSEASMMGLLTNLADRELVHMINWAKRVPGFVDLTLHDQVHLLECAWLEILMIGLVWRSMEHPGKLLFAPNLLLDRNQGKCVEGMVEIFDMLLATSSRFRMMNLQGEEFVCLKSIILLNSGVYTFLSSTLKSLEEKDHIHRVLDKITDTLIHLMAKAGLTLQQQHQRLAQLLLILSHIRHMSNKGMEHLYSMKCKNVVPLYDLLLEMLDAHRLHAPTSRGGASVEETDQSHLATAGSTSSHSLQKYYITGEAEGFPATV

[14] = Luminescence Cell-Based Dose Retest to Confirm Inhibitors of Cancer Stem Cells. [Related pubchem assays (depositor defined):AID2717, AID2721]; format: functional; settings: Homo sapiens
INS1 = experiment: beta cell apoptosis inhibitors, cytokine rescue, dose response, luminescence, retest (AID 449756); format: functional, cell-based; settings: Rattus norvegicus;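 note: cell death triggered by IL-1 beta plus TNF-alpha plus IFN-gamma mixture; protective hits raise ATP signal compared with cytokine alone wells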
[15] = inhibitors of firefly luciferase expression or activity, dose response, H4 neuroglioma cells, luminescence (AID 1990); format: functional, cell-based
[16] = Luminescence Cell-Based Dose Response HTS to Identify Inhibitors of 5'UTR Stem-Loop Driven Prion Protein mRNA Translation in H4 Neuroglioblastoma Cells. [Related pubchem assays: 1827 (Project Summary), 1813 (Primary HTS)]; format: functional
[17] = target: T4, Heat shock factor protein 1 (Mus musculus, UniProt P38532); experiment: inhibition of MG132-induced HSE-luciferase signal, confirmation, cell-based, NIH3T3, luminescence, dose retest (AID 2382); format: functional;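 note: NIH3T3 fibroblasts with HSF1-driven luciferase reporter stressed by proteasome inhibitor MG132; luminescence from HSF1-driven luciferase expression after 8 hours of MG132 stress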
T4 sequence (P38532 whole entry): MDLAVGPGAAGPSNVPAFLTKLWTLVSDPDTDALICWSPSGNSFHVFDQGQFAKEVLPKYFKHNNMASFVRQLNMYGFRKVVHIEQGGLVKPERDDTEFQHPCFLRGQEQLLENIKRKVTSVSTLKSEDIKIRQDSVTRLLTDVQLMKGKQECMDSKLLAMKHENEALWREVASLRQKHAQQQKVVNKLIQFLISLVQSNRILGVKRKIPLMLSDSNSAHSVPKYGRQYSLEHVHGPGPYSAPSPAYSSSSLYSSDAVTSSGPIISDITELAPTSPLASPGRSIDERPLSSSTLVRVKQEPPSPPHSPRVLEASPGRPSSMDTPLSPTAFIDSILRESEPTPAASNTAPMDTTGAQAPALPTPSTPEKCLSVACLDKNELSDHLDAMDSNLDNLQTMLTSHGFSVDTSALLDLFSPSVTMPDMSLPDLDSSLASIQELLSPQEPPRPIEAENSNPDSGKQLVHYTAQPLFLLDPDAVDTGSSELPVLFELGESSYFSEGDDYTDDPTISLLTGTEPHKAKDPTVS

[18] = inhibitors of SNCA 5'UTR-driven reporter translation, confirmation, H4 neuroglioma cells, luminescence (AID 1988); format: functional, cell-based

DNA dC->dU-editing enzyme APOBEC-3A, sequence (P31941 whole entry): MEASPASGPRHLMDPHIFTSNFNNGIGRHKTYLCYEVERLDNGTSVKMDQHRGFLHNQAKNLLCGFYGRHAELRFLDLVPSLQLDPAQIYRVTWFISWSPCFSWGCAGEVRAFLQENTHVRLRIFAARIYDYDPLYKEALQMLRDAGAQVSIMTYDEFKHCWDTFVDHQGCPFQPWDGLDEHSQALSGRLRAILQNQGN
Nucleotide-binding oligomerization domain-containing protein 2, sequence (Q9HC29 whole entry, the tested form may be a part): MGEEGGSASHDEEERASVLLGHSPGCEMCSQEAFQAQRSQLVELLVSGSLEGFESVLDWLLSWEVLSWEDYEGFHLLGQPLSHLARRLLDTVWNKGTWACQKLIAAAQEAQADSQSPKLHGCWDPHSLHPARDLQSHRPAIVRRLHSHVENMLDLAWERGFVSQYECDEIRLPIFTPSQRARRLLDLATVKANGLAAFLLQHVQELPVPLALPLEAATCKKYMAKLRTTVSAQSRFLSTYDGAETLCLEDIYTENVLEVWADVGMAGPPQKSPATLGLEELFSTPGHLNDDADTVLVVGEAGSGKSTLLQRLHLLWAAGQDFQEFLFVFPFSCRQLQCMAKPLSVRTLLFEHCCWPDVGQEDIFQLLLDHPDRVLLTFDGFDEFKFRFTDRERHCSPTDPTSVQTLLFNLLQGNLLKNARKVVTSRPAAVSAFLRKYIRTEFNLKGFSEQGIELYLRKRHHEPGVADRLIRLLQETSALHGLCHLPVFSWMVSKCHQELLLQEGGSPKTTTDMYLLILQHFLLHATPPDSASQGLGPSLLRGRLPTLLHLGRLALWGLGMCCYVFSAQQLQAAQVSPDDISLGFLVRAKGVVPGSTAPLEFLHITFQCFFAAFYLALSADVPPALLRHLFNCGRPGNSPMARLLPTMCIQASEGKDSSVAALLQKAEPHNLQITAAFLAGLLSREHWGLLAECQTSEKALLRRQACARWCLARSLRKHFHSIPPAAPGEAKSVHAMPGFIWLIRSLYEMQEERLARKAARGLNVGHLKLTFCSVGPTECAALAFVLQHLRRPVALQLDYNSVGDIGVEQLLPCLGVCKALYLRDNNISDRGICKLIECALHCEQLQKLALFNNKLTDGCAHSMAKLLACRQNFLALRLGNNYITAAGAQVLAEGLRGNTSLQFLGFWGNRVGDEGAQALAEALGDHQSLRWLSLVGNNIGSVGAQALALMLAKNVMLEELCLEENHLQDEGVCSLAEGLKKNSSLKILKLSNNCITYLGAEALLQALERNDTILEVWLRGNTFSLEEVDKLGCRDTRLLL
DNA dC->dU-editing enzyme APOBEC-3G, sequence (Q9HC16 whole entry): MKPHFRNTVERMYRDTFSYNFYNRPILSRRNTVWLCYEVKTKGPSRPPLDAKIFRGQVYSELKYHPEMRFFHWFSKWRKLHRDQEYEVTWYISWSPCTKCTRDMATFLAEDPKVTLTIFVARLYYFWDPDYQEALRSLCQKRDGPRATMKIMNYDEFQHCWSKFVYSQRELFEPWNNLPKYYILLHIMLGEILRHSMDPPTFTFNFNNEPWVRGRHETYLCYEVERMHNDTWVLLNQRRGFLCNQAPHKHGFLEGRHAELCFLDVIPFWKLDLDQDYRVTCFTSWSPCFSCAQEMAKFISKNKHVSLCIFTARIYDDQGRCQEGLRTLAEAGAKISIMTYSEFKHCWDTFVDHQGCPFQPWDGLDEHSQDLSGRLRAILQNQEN
SUMO-activating enzyme, sequence (Q9UBE0 whole entry): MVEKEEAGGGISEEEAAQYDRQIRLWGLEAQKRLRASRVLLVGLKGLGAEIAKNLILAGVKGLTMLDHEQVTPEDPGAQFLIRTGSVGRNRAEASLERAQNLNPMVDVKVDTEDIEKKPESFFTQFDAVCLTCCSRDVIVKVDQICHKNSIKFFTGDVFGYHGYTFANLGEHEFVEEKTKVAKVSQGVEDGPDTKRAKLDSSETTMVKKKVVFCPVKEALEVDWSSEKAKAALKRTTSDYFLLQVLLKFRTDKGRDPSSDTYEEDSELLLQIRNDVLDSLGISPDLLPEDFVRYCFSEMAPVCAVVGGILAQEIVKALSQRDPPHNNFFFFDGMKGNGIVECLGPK
SUMO-activating enzyme, sequence (Q9UBT2 whole entry): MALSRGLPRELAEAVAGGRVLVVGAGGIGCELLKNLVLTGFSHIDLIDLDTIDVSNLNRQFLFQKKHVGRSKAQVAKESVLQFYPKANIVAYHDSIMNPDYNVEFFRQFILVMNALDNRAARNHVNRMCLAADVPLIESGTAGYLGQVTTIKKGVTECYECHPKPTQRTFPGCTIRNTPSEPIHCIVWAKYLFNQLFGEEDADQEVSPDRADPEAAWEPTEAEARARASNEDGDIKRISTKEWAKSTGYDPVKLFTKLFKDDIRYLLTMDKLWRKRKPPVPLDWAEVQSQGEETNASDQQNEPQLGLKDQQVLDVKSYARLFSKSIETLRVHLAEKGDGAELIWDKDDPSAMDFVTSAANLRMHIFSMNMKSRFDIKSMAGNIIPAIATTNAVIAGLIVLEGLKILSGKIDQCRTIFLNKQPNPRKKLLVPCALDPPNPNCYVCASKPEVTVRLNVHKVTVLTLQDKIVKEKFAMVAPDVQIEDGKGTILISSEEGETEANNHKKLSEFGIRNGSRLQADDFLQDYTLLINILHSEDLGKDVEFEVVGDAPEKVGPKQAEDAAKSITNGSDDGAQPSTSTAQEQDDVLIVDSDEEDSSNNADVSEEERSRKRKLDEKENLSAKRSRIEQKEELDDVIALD

## COc1ccc2c(c1O)C13CCN(C)C(C2)C1CCC(=O)C3 (stereo not drawn)
[1]
  EC50: 0.168 µM (active)

## Cc1ccc(-c2nn3c(C)nnc3c3ccccc23)cc1S(=O)(=O)NCc1ccco1
[2]
  IC50: > 80 µM (inactive)
[3]
  IC50: 15.2 µM (active)
Vero
  CC50: 3.28 µM (active)

## Cc1cccc(C(=O)NC(=S)NNC(=O)c2cccs2)c1
[1]
  EC50: 2.99 µM (active)

## CC(=O)Nc1nnc(SCc2ccc(C(=O)Nc3ccccc3F)cc2)s1
[4]
  IC50: 5.85 µM (active)
[5]
  IC50: 6.06 µM (active)

## O=C(Nc1ccc2nn(-c3ccccc3)nc2c1)c1ccc2c(c1)OCCO2
HEK293 [6]
  EC50: > 20 µM (inactive)
HEK293 [7]
  IC50: 5.31 µM (active)
HEK293 [8]
  IC50: > 20 µM (inactive)
[9]
  EC50: > 20 µM (not active)
[10]
  EC50: > 20 µM (inactive)
HEK293 [11]
  IC50: 8.39 µM (active)
HEK293 [12]
  IC50: > 20 µM (inactive)
[13]
  EC50: > 20 µM (not active)

## CCOc1cccc2cc(-c3nnc(NCc4ccco4)s3)c(=O)oc12
SUMO-activating enzyme
  IC50: 45.7 µM (active)
Estrogen receptor
  IC50: 26.8 µM (active)

## C[N+]1(CCCCCCC(=O)C=NO)CCCCCC1
[4]
  IC50: 4.03 µM (active)
[5]
  IC50: 3.9 µM (active)

## Cn1c(SCC(=O)Nc2ccc3c(c2)oc2ccccc23)nnc1-c1ccccc1
Estrogen receptor
  IC50: > 50 µM (not active)
[4]
  IC50: 5.4 µM (active)
[5]
  IC50: 6.7 µM (active)

## COc1cc(NC(=O)c2cc3ccccc3cc2O)c(OC)cc1Cl
HEK293 [6]
  EC50: 4.15 µM (active)
HEK293 [7]
  IC50: > 20 µM (inactive)
HEK293 [8]
  IC50: 14 µM (active)
[10]
  EC50: 5.66 µM (active)
HEK293 [11]
  IC50: 4.06 µM (inactive)
HEK293 [12]
  IC50: > 20 µM (inactive)
[14]
  AC50: 0.612 µM (active)
INS1
  AC50: 4.03 µM (active)

## O=C(O)CCSc1ncnc2sc(-c3ccccc3)cc12
[15]
  EC50: 4.36 µM (active)
HEK293 [6]
  EC50: 7.39 µM (active)
HEK293 [7]
  IC50: 1.54 µM (active)
[16]
  EC50: 9.35 µM (active)
[17]
  EC50: 0.643 µM (active)
[18]
  EC50: 4.68 µM (active)
HEK293 [8]
  IC50: > 20 µM (inactive)
[10]
  EC50: 4.19 µM (active)
HEK293 [11]
  IC50: 3.59 µM (active)
HEK293 [12]
  IC50: > 20 µM (inactive)
[2]
  IC50: > 80 µM (inactive)

## CC1(C)Oc2ccc3ccc(=O)oc3c2C(/C=N/CCO)=C1O
[4]
  IC50: 2.47 µM (active)
[5]
  IC50: 6.83 µM (active)
